Measurements from publication PMC3707396 (Bioorganic & medicinal chemistry letters, 2013).

Experiments:
[1] = tested on: mice; test: In vivo tolerability study
[2] = tested on: PC-3 cells; conditions: cited from earlier work
[3] = Kinetic solubility; assay type: physicochemical; conditions: for Solubility bin (high, medium or low): kinetic solubility, ranges not printed (in reference)
[4] = Passive permeability, PAMPA Explorer Kit; assay type: in vitro ADME; conditions: for Log Peff: log of effective permeability, mean of n = 3; for Permeability bin (high, medium or low): ranges not printed (Ref 17)
[5] = tested on: SK-Mel-147 cells; test: WST-1 cytotoxicity in SK-Mel-147 cells; assay type: cell-based
[6] = tested on: MKL1; conditions: preliminary studies; cited from earlier work
[7] = tested on: PC-3 cells; test: WST-1 cytotoxicity in transfected PC-3 cells; assay type: cell-based; conditions: Homo sapiens, PC-3, read-out: % inh WST-1 (100 μM)
[8] = molecular target: Rho-pathway selective serum response element-luciferase reporter (SRE.L); conditions: read-out: IC50 (SRE.L); cited from earlier work

Row | Solubility bin (high, medium or low) [3] | Log Peff [4] [cm/s] | Permeability bin (high, medium or low) [4] | SMILES | inhibition at 100 µM [7] [%] | further results
1 | – | – | – | CC(ONC(=O)c1cc(C(F)(F)F)cc(C(F)(F)F)c1)C(=O)Nc1ccc(Cl)cc1 (stereo not drawn) [Compound 1, reference compound] | – | In vivo tolerability (toxicity) ([1]; repeated dosing at 7.5 mg/kg intraperitoneally (IP)): deaths observed; Inhibition of invasion of PC-3 prostate cancer cells ([2]; Matrigel model of metastasis): inhibits invasion
2 | LOW | −10 ± 0.00 | LOW | O=C(Nc1ccc(Cl)cc1)C1CCCN(C(=O)c2cc(C(F)(F)F)cc(C(F)(F)F)c2)C1 (stereo not drawn) [Compound 2, reference compound] | – | solubility [3]: < 10 µg/mL; Inhibition of invasion into Matrigel by cultured PC-3 cells [2]: can inhibit invasion
3 | – | – | – | O=C(c1ccccc1)c1cccc(C(=O)N2CCCC(C(=O)Nc3ccc(Cl)cc3)C2)c1 (stereo not drawn) [Compound 8b] | 0 | –
4 | – | – | – | CC(C)(C)CC(=O)Nc1cccc(C(=O)N2CCCC(C(=O)Nc3ccc(Cl)cc3)C2)c1 (stereo not drawn) [Compound 8e] | 0 | –
5 | – | – | – | C=Cc1cccc(C(=O)N2CCCC(C(=O)Nc3ccc(Cl)cc3)C2)c1 (stereo not drawn) [Compound 8f] | 0 | –
6 | – | – | – | Cc1cccc(C(=O)N2CCCC(C(=O)Nc3ccc(Cl)cc3)C2)c1 (stereo not drawn) [Compound 8h] | 0 | –
7 | – | – | – | CSc1cccc(C(=O)N2CCCC(C(=O)Nc3ccc(Cl)cc3)C2)c1 (stereo not drawn) [Compound 8i] | 0 | –
8 | – | – | – | O=C(Nc1ccc(Cl)cc1)C1CCCN(C(=O)c2cccc(-c3cnco3)c2)C1 (stereo not drawn) [Compound 8j] | 0 | –
9 | – | – | – | CCN(CC)S(=O)(=O)c1cccc(C(=O)N2CCCC(C(=O)Nc3ccc(Cl)cc3)C2)c1 (stereo not drawn) [Compound 8k] | 0 | –
10 | – | – | – | COC(=O)c1cccc(C(=O)N2CCCC(C(=O)Nc3ccc(Cl)cc3)C2)c1 (stereo not drawn) [Compound 8l] | 0 | –
11 | – | – | – | Cc1nc(-c2cccc(C(=O)N3CCCC(C(=O)Nc4ccc(Cl)cc4)C3)c2)no1 (stereo not drawn) [Compound 8m] | 0 | –
12 | – | – | – | COc1cccc(C(=O)N2CCCC(C(=O)Nc3ccc(Cl)cc3)C2)c1 (stereo not drawn) [Compound 8n] | 0 | –
13 | – | – | – | COCc1cccc(C(=O)N2CCCC(C(=O)Nc3ccc(Cl)cc3)C2)c1 (stereo not drawn) [Compound 8o] | 0 | –
14 | – | – | – | N#Cc1cccc(C(=O)N2CCCC(C(=O)Nc3ccc(Cl)cc3)C2)c1 (stereo not drawn) [Compound 8q] | 0 | –
15 | – | – | – | O=C(Nc1ccc(Cl)cc1)C1CCCN(C(=O)c2cccc([N+](=O)[O-])c2)C1 (stereo not drawn) [Compound 8s] | 0 | –
16 | LOW | −10 ± 0.00 | LOW | O=C(Nc1ccc(Cl)cc1)C1CCCN(C(=O)c2cccc(-c3cccs3)c2)C1 (stereo not drawn) [Compound 8u] | – | –
17 | LOW | −5.1 ± 0.40 | MOD-LOW | O=C(Nc1cccc(Oc2ccccc2)c1)C1CCCN(C(=O)c2cc(C(F)(F)F)cc(C(F)(F)F)c2)C1 (stereo not drawn) [Compound 12a] | – | –
18 | LOW | −4.7 ± 0.05 | MOD | O=C(Nc1cccc(Cc2ccccc2)c1)C1CCCN(C(=O)c2cc(C(F)(F)F)cc(C(F)(F)F)c2)C1 (stereo not drawn) [Compound 12b] | – | –
19 | LOW | −10 ± 0.00 | LOW | O=C(CCNC(=O)c1cc(C(F)(F)F)cc(C(F)(F)F)c1)Nc1ccc(Cl)cc1 [Compound 19, reference compound] | – | IC50 [8]: 38 µM

Row | SMILES | Solubility bin (high, medium or low) [3] | Log Peff [4] [cm/s] | Permeability bin (high, medium or low) [4] | inhibition at 100 µM [7] [%] | further results
20 | O=C(Nc1ccc(Cl)cc1)C1CCCN(C(=O)c2cccc(-c3ccco3)c2)C1 (stereo not drawn) [Compound 8a] | LOW | −8.3 ± 2.3 | LOW | 0 | WST-1 cytotoxicity [5]: no WST-1 cytotoxicity; Body weight over the course of the study ([1]; 10, 20, 50 and 100 mg/kg/day IP, 5 days): Weight was maintained; Abnormality observed at dissection ([1]; 10, 20, 50 and 100 mg/kg/day IP, 5 days, sacrifice on 8th day): slight increase in liver weight; Tolerability in mice ([1]; 5 days, up to 100 mg/kg/day IP, normal mice): well tolerated; Effect on MKL1 nuclear localization [6]: blocks MKL1 nuclear localization
